Measurements taken from patent US9193731B2, “Antimicrobial compounds and methods of making and using the same” (Melinta Therapeutics, Inc., priority 2009, dated 2015).

System: Escherichia coli strain ATCC25922
Assay: standard microdilution assay to determine minimum inhibitory concentrations (MICs)
Format: cell-based
Details: Escherichia coli strain ATCC25922, microdilution
How it was run: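 E. coli strain ATCC25922 tested per CLSI microdilution methodology (about 100 microliters per well) to find minimum inhibitory concentrations. Activity scored categorically at a 16 micrograms/ml threshold.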

Row | SMILES | E. coli ATCC25922 MIC
1 | N=C(N)NC(=O)CCNCc1ccc(-n2cc3cc(-c4ccc(S(=O)(=O)NC5CCNCC5)cc4)[nH]c3nc2=O)cc1 [Compound 1173] | − (a “−” indicates that the compound has an MIC value greater than 16 micrograms/ml)
2 | N=C(N)NCCCNCc1ccc(-n2cc3cc(-c4cc(CN)cc(CCCCN)c4)[nH]c3nc2=O)cc1 [Compound 2064a] | + (a “+” indicates that the compound has an MIC value of 16 micrograms/ml or less)
3 | CNCc1ccc(-n2cc3cc(-c4ccc(S(=O)(=O)N(Cc5ccc6nonc6c5)C5CCNCC5)cc4)[nH]c3nc2=O)cc1 [Compound 962] | − (a “−” indicates that the compound has an MIC value greater than 16 micrograms/ml)
4 | N=C(N)NCCCNCc1ccc(-n2cc3cc(-c4cc(OCC(F)CN)cc(N5CCNCC5)c4)[nH]c3nc2=O)cc1 (stereo not drawn) [Compound 2005a] | + (a “+” indicates that the compound has an MIC value of 16 micrograms/ml or less)
5 | N=C(N)NCCCNCc1ccc(-n2cc3cc(-c4cc(CCCCN)cc(C(N)=O)c4)[nH]c3nc2=O)cc1 [Compound 2069a] | + (a “+” indicates that the compound has an MIC value of 16 micrograms/ml or less)
6 | N=C(N)NCCCNC(=O)c1ccc(-n2cc3cc(-c4cccc(S(=O)(=O)N(CCCn5ccc(C(F)(F)F)n5)C5CCNCC5)c4)[nH]c3nc2=O)cc1 [Compound 1124] | − (a “−” indicates that the compound has an MIC value greater than 16 micrograms/ml)
7 | N=C(N)NCCCNCc1ccc(-n2cc3cc(-c4ccc(S(=O)(=O)N(CCCc5ccncc5)C5CCNCC5)cc4)[nH]c3nc2=O)cc1 [Compound 838] | + (a “+” indicates that the compound has an MIC value of 16 micrograms/ml or less)
8 | N=C(N)NCCCNCc1ccc(-n2cc3cc(-c4cccc(S(=O)(=O)N(Cc5ccc6nonc6c5)C5CCNCC5)c4)[nH]c3nc2=O)cc1 [Compound 1076] | + (a “+” indicates that the compound has an MIC value of 16 micrograms/ml or less)
9 | NC(=O)c1ccc(-n2cc3cc(-c4ccc(S(=O)(=O)N(Cc5cc(OC(F)(F)F)ccc5F)C5CCNCC5)cc4)[nH]c3nc2=O)cc1 [Compound 1115] | − (a “−” indicates that the compound has an MIC value greater than 16 micrograms/ml)
10 | N=C(N)NCCCNCc1ccc(-n2cc3cc(-c4ccc(S(=O)(=O)N(Cc5ccc(Cl)c(Cl)c5)C5CCOCC5)cc4)[nH]c3nc2=O)cc1 [Compound 898] | − (a “−” indicates that the compound has an MIC value greater than 16 micrograms/ml)
11 | CN1CCN(CCCN(C2CCNCC2)S(=O)(=O)c2ccc(-c3cc4cn(-c5ccc(CNCCCNC(=N)N)cc5)c(=O)nc4[nH]3)cc2)CC1 [Compound 899] | + (a “+” indicates that the compound has an MIC value of 16 micrograms/ml or less)
12 | N=C(N)NCCCNCc1ccc(-n2cc3cc(-c4ccc(S(=O)(=O)N(Cc5cc(Cl)cc(C(F)(F)F)c5)C5CCNCC5)cc4)[nH]c3nc2=O)cc1 [Compound 922] | + (a “+” indicates that the compound has an MIC value of 16 micrograms/ml or less)
13 | N=C(N)NCCCNC(=O)c1ccc(-n2cc3cc(-c4ccc(S(=O)(=O)CCCNC5CCCNC5)cc4)[nH]c3nc2=O)cc1 (stereo not drawn) [Compound 1276] | + (a “+” indicates that the compound has an MIC value of 16 micrograms/ml or less)
14 | N=C(N)NCCCNCc1ccc(-c2cn3cc(-c4ccc(S(=O)(=O)N5CCN(C(=O)OCc6ccccc6)CC5)cc4)[nH]c3nc2=O)cc1 [Compound 790] | + (a “+” indicates that the compound has an MIC value of 16 micrograms/ml or less)
15 | N=C(N)NCCCNCc1ccc(-n2cc3cc(-c4ccc(S(=O)(=O)N(CC5CCOCC5)C5CCCNC5)cc4)[nH]c3nc2=O)cc1 (single isomer, unassigned) [Compound 844] | + (a “+” indicates that the compound has an MIC value of 16 micrograms/ml or less)
16 | N=C(N)NCCCNCc1ccc(-n2cc3cc(-c4ccc(S(=O)(=O)NC5CCNCC5)cc4)[nH]c3nc2=O)cc1 [Compound 871] | + (a “+” indicates that the compound has an MIC value of 16 micrograms/ml or less)
17 | NCCCNCc1ccc(-n2cc3cc(-c4ccc(C(NC5CCNCC5)C(F)(F)F)cc4)[nH]c3nc2=O)cc1 (stereo not drawn) [Compound 918] | + (a “+” indicates that the compound has an MIC value of 16 micrograms/ml or less)
18 | N=C(N)NCCNCc1ccc(-n2cc3cc(-c4ccc(S(=O)(=O)NC5CCNCC5)cc4)[nH]c3nc2=O)cc1 [Compound 1104] | + (a “+” indicates that the compound has an MIC value of 16 micrograms/ml or less)
19 | COc1cc(-n2cc3cc(-c4cccc(OCCCN)c4)[nH]c3nc2=O)ccc1CNCCCNC(=N)N [Compound 1273] | + (a “+” indicates that the compound has an MIC value of 16 micrograms/ml or less)
20 | CC(CCN)Oc1cccc(-c2cc3cn(-c4ccc(CNCCCNC(=N)N)cc4)c(=O)nc3[nH]2)c1 (stereo not drawn) [Compound 1414] | + (a “+” indicates that the compound has an MIC value of 16 micrograms/ml or less)
21 | NCCCNCc1ccc(-n2cc3cc(-c4ccc(S(=O)(=O)N(CC5CCOCC5)C5CCCNC5)cc4)[nH]c3nc2=O)cc1 (stereo not drawn) [Compound 831] | + (a “+” indicates that the compound has an MIC value of 16 micrograms/ml or less)
22 | N=C(N)NCCCNCc1ccc(-n2cc3cc(-c4ccc(S(=O)(=O)N(CCC(=O)Nc5ccc([N+](=O)[O-])cc5)C5CCNCC5)cc4)[nH]c3nc2=O)cc1 [Compound 854] | + (a “+” indicates that the compound has an MIC value of 16 micrograms/ml or less)
23 | N=C(N)NCCCNCc1ccc(-n2cc3cc(-c4cccc(S(=O)(=O)N(CCn5cccn5)C5CCNCC5)c4)[nH]c3nc2=O)cc1 [Compound 1176] | + (a “+” indicates that the compound has an MIC value of 16 micrograms/ml or less)
24 | N=C(N)NCCCNCc1ccc(-n2cc3cc(-c4ccc(S(=O)(=O)N(Cc5cc(OC(F)(F)F)ccc5F)C5CCNCC5)cc4)[nH]c3nc2=O)cc1 [Compound 767] | + (a “+” indicates that the compound has an MIC value of 16 micrograms/ml or less)
25 | N=C(N)NCCCNCc1ccc(-n2cc3cc(-c4ccc(OC(F)(F)F)c(CCCCN)c4)[nH]c3nc2=O)cc1 [Compound 2072a] | + (a “+” indicates that the compound has an MIC value of 16 micrograms/ml or less)
26 | N=C(N)NCCCNCC(Cn1cc2cc(-c3ccc(S(=O)(=O)NC4CCNCC4)cc3)[nH]c2nc1=O)OCc1ccc(F)c(F)c1 (stereo not drawn) [Compound 1089] | − (a “−” indicates that the compound has an MIC value greater than 16 micrograms/ml)

Same assay, conditions: Escherichia coli, ATCC25922, Escherichia coli strain ATCC25922, microdilution; read-out: E. coli ATCC25922 MIC

Row | SMILES | MIC [µg/mL]
27 | NC(=O)/N=C(\N)NCCCNCc1ccc(-n2cc3cc(-c4ccc(C(=O)NC5CCNCC5)cc4)[nH]c3nc2=O)cc1 [Compound 228] | < 16
28 | CN1CCC(NC(=O)c2ccc(-c3cc4cn(-c5ccc(CN(CCCN)CCCN)cc5)c(=O)nc4[nH]3)cc2)CC1 [Compound 204] | < 16
29 | N=C(N)NCCCCCN1CCN(c2cn3cc(-c4ccc(Br)cc4)[nH]c3nc2=O)CC1 [Compound 882] | > 16
30 | N=C(N)NCCCNCc1ccc(-c2cn3cc(-c4ccc(C(=O)N5CCC(F)(F)CC5)cc4)[nH]c3nc2=O)cc1 [Compound 704] | > 16
31 | CNCc1ccc(-n2cc3cc(-c4ccc(S(=O)(=O)N(CCCn5ccc(C(F)(F)F)n5)C5CCNCC5)cc4)[nH]c3nc2=O)cc1 [Compound 1021] | > 16
32 | N=C(N)NCCCNCc1ccc(-c2cn3cc(-c4ccc(C(=O)N5CCNC(=O)C5)cc4)[nH]c3nc2=O)cc1 [Compound 693] | < 16
33 | COCCOCCOc1cccc(-c2cc3cn(-c4ccc(CNCCCNC(=N)N)cc4)c(=O)nc3[nH]2)c1 [Compound 1101] | > 16
34 | N=C(N)N[C@@H]1CCN(Cc2ccc(-n3cc4cc[nH]c4nc3=O)cc2)C1 [Compound 1140] | > 16
35 | NCc1ccc(-n2cc3cc(-c4cccc(OCCO)c4)[nH]c3nc2=O)cc1 [Compound 1100] | > 16
36 | N=C(N)NCCCNCc1ccc(-n2cc3cc(CCS(=O)(=O)C4CCNCC4)[nH]c3nc2=O)cc1 [Compound 1240] | < 16
37 | Cc1cc(CN(C(=O)c2ccc(-c3cc4cn(-c5ccc(CN(CCCN)CCCN)cc5)c(=O)nc4[nH]3)cc2)C2CCNCC2)no1 [Compound 226] | > 16
38 | N=C(N)N[C@H]1CCCN(Cc2ccc(-n3cc4cc[nH]c4nc3=O)cc2)C1 [Compound 1155] | > 16
39 | NCCCNCc1ccc(-c2cn3cc(-c4ccc(S(=O)(=O)N5CCOCC5)cc4)[nH]c3nc2=O)cc1 [Compound 746] | > 16
40 | N=C(N)NCCCCCc1ccc(-c2cn3cc(-c4ccc(Br)cc4)[nH]c3nc2=O)cc1 [Compound 885] | > 16
41 | CCCCN1CC=C(c2cn3cc(-c4ccc(F)cc4)[nH]c3nc2=O)CC1 [Compound 565] | > 16
42 | CN(C)C(=O)c1cc(-c2cc3cn(-c4ccc(CNCCCN)cc4)c(=O)nc3[nH]2)cc(N2CCNCC2)c1 [Compound 796] | < 16
43 | CCOCCn1cc(CCNO)c2ccc(-n3cc4cc(CCS(=O)(=O)NC5CCNCC5)[nH]c4nc3=O)cc21 [Compound 1209] | > 16
44 | NCc1ccc(-n2cc3cc(-c4cccc(OC[C@H](F)CN)c4)[nH]c3nc2=O)cc1 [Compound 1443] | > 16
45 | CC(=O)NCCCN1CCCC(c2cc3cn(-c4ccc(CNCCCNC(=N)N)cc4)c(=O)nc3[nH]2)C1 (stereo not drawn) [Compound 2021a] | > 16
46 | CN1CCN(c2cccc(-c3cc4cn(-c5ccc(CNCCCNC(=N)N)cc5)c(=O)nc4[nH]3)c2)CC1 [Compound 678] | < 16
47 | O=C(NC1CCNCC1)c1ccc(-c2cc3cn(-c4ccc(CNCCCCl)cc4)c(=O)nc3[nH]2)c(F)c1 [Compound 253] | > 16
48 | CNCc1ccc(-n2cc3cc(-c4ccc(S(=O)(=O)N(CCCN5CCOCC5)C5CCNCC5)cc4)[nH]c3nc2=O)cc1 [Compound 1037] | > 16
49 | NCCCCCc1ccc(-c2cn3cc(-c4ccc(Br)cc4)[nH]c3nc2=O)cc1 [Compound 886] | > 16
50 | NCCCNCc1ccc(-n2cc3cc(-c4ccccc4OC(F)(F)F)[nH]c3nc2=O)cc1 [Compound 309] | > 16
51 | NCCCN(CCCN)Cc1ccc(-n2cc3cc(-c4ccc(C(=O)O)cc4)[nH]c3nc2=O)cc1 [Compound 218] | > 16
